Measured values taken from patent publication US20060160811A1, “Aryl-condensed 3-arylpridine compounds and use thereof for controlling pathogenic fungi” (priority 2003, published 2006).

What was measured:
[1] = test system: Leptosphaeria nodorum; test: Activity against leaf blotch on wheat caused by Leptosphaeria nodorum, protective application; format: in vivo; details: protective spray, wheat cultivar Kanzler, inoculated next day, visual rating after 8 days, untreated control 80%
Description: The active compounds were prepared as a stock solution with 0.25% by weight of active compound in acetone or DMSO (dimethyl sulfoxide). 1% by weight of the emulsifier Uniperol® EL (wetting agent having emulsifying and dispersing action based on ethoxylated alkylphenols) was added to this solution, and the solution was diluted with water to the desired concentration.
Activity against leaf blotch on wheat caused by Leptosphaeria nodorum, protective application.
Pots with wheat plants of the cultivar “Kanzler” were sprayed to runoff point with an aqueous suspension having the concentration of active compound stated below. The next day, the pots were inoculated with an aqueous spore suspension of Leptosphaeria nodorum. The plants were then placed in a chamber at 20° C. and maximum atmospheric humidity. After 8 days, the leaf blotch on the untreated but infected control plants had developed to such an extent that the degree of infection could be determined visually in %.

SMILES | melting point | Leaf infection [%] at 250 ppm [1]
CC1CCN(c2nc3ncncc3c(Cl)c2-c2c(F)cc(F)cc2F)CC1 | – | 3%
Fc1cc(F)c(-c2c(Cl)nc3ncncc3c2Cl)c(F)c1 [drawing 26] | – | 3%
Oc1nc2nccnc2c(O)c1-c1c(F)cc(F)cc1F | – | 10%
Oc1nc2ncncc2c(O)c1-c1c(F)cc(F)cc1F [Example 1, 6-(2,4,6-Trifluorophenyl)pyrido[2,3-d]pyrimidine-5,7-diol] | 348 °C (dec.) | –

Further lines, with some results ahead:

melting point | SMILES | Leaf infection [%] at 250 ppm [1]
268 °C | CC1CCN(c2c(-c3c(F)cc(F)cc3F)c(O)nc3ncncc23)CC1 [Example 8, 5-(4-Methylpiperidin-1-yl)-6-(2,4,6-trifluorophenyl)pyrido[2,3-d]pyrimidin-7-ol] | –
146 °C | Fc1cc(F)c(-c2c(OCc3ccccc3)nc3ncncc3c2Cl)c(F)c1 (hydrate or solvate) [Example 3, 7-Benzyloxy-5-chloro-6-(2,4,6-trifluorophenyl)pyrido[2,3-d]pyrimidine] | –
169 °C | Fc1cc(F)c(-c2c(Cl)nc3ncncc3c2Cl)c(F)c1 [Example 2, 5,7-Dichloro-6-(2,4,6-trifluorophenyl)pyrido[2,3-d]pyrimidine] | –
315 °C | Cc1ccc2c(O)c(-c3c(F)cc(F)cc3F)c(C)nc2n1 [Example 5, 2,7-Dimethyl-3-(2,4,6-trifluorophenyl)-[1,8]naphthyridin-4-ol] | –
